For experiment [1], the target named is Deoxycytidine kinase (Homo sapiens, UniProt P27707).
The target of experiment [2] is Mitogen-activated protein kinase kinase kinase kinase 4 (Homo sapiens, UniProt O95819).
Experiment [3] deals with Casein kinase I isoform gamma-1 (Homo sapiens, UniProt Q9HCP0).
Experiment [4] has as its target T1, Serine/threonine-protein kinase Nek3 (Homo sapiens, UniProt P51956).
T1 sequence (P51956 whole entry): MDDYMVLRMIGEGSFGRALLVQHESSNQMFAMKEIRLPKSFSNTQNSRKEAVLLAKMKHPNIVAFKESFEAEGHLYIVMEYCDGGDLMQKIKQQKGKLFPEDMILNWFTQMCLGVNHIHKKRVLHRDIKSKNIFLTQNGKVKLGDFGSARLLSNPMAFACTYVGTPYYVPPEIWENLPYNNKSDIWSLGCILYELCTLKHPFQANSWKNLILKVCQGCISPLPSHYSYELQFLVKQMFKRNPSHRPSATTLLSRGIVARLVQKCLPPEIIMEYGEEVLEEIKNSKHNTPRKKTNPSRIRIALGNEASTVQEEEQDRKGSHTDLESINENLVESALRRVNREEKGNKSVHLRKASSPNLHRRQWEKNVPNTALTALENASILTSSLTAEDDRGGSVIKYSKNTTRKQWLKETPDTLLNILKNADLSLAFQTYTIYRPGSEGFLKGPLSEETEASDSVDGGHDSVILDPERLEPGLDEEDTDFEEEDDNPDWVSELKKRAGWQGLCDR

Experiment [5] addresses T2, Serine/threonine-protein kinase TBK1 (Homo sapiens, UniProt Q9UHD2).
T2 sequence (Q9UHD2 whole entry): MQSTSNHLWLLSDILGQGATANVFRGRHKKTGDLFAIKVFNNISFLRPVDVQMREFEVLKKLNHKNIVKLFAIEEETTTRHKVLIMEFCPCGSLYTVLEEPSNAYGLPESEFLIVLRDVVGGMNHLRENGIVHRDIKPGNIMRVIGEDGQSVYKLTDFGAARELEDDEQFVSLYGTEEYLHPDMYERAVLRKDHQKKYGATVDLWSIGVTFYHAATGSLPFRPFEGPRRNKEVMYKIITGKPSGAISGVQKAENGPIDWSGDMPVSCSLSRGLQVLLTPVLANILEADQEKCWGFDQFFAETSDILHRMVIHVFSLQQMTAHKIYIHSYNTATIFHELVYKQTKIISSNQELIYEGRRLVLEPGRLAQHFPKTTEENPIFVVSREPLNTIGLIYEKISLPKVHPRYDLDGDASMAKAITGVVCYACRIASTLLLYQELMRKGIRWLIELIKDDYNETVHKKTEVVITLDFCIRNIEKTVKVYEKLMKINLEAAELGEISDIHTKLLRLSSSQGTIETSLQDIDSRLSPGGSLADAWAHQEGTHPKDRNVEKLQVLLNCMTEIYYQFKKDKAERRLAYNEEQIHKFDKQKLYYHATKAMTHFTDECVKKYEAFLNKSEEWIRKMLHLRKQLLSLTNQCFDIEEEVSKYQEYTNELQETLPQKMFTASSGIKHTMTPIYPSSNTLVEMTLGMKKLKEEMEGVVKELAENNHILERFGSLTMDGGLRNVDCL

Experiment [6] concerns the target T3, Mitogen-activated protein kinase kinase kinase 2 (Homo sapiens, UniProt Q9Y2U5).
T3 sequence (Q9Y2U5 whole entry): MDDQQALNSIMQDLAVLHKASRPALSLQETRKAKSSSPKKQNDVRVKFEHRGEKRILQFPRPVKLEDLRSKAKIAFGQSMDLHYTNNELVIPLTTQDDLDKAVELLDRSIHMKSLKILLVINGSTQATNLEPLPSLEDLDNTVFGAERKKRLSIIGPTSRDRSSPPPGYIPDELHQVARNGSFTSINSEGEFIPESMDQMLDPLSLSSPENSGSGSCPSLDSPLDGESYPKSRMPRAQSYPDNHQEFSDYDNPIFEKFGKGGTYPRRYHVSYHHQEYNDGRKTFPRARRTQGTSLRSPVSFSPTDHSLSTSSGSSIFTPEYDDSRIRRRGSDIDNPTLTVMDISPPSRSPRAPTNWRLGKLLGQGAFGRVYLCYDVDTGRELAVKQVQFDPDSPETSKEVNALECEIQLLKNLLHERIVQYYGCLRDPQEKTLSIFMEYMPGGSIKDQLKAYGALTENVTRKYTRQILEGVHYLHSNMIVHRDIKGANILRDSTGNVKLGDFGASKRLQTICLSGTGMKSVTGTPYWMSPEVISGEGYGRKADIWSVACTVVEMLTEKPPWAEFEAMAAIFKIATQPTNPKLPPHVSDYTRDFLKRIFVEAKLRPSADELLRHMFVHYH

For experiment [7], the target named is Cyclin-dependent kinase 1 (Homo sapiens, UniProt P06493).
Experiment [8] deals with T4, Serine/threonine-protein kinase A-Raf (Homo sapiens, UniProt P10398).
T4 sequence (P10398 whole entry): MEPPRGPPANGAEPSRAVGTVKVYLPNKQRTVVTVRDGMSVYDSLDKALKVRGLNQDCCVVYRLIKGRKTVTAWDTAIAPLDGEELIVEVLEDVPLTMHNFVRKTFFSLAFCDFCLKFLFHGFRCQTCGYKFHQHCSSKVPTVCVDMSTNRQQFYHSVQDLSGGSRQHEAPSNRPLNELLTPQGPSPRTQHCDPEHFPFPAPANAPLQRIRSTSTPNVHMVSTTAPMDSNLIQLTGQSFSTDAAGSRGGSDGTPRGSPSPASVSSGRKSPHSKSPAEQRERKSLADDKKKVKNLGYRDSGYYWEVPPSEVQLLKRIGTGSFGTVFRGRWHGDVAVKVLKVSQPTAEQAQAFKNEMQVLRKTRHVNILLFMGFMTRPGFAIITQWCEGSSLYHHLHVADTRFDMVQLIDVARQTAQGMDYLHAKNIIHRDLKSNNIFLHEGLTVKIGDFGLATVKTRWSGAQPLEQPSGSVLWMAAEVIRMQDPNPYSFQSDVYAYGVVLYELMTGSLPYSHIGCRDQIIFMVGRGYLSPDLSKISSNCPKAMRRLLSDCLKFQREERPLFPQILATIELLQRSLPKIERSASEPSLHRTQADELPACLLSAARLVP

Activity calls are given as the source filed them. Rule as the data show it, for most assays here: actives have a measured Kd and inactives only a lower limit.

For orientation: Kd means a measure of binding affinity in units of concentration.
Also: in the data inactive means no Kd found up to 30 µM.

Chain of Deoxycytidine kinase (P27707 whole entry): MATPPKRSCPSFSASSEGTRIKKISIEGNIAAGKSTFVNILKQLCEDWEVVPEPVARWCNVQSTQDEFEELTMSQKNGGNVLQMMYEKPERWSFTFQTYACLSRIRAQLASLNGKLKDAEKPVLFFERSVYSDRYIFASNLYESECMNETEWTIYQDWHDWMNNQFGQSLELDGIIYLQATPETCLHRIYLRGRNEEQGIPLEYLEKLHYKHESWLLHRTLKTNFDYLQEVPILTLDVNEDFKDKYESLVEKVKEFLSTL
Chain of Mitogen-activated protein kinase kinase kinase kinase 4 (O95819 whole entry, canonical isoform): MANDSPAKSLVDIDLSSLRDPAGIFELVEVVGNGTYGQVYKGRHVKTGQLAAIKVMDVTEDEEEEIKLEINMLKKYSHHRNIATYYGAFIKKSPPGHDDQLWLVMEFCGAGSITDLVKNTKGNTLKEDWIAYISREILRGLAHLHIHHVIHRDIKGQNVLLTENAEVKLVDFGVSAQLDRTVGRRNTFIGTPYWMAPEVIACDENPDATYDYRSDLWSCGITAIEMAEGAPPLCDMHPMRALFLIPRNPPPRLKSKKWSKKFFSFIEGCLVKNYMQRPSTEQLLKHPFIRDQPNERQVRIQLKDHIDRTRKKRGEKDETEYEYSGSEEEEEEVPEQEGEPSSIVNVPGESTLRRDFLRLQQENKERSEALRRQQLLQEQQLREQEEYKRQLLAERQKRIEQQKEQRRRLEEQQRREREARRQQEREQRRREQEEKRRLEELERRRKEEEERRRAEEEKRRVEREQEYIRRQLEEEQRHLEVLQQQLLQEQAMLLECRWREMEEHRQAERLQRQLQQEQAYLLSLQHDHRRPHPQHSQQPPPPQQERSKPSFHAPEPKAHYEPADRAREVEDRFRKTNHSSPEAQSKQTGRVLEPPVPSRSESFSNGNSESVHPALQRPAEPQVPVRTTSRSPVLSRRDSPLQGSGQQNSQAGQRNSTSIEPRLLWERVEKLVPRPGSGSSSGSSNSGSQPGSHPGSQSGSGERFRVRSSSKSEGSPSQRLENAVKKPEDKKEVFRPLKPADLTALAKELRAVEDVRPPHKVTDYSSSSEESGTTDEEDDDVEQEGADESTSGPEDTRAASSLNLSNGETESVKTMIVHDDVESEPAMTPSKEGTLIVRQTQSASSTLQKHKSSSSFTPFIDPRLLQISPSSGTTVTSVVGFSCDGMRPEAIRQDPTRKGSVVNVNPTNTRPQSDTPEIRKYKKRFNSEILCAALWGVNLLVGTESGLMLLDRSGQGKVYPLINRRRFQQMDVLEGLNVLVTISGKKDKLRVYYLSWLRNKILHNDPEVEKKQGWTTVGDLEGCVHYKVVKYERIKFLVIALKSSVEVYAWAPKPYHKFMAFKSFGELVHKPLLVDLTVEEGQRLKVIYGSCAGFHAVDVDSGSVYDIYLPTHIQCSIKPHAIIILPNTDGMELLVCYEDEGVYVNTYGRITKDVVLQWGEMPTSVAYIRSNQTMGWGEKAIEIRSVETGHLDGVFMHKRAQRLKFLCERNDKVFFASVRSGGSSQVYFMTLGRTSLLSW
Chain of Cyclin-dependent kinase 1 (P06493 whole entry): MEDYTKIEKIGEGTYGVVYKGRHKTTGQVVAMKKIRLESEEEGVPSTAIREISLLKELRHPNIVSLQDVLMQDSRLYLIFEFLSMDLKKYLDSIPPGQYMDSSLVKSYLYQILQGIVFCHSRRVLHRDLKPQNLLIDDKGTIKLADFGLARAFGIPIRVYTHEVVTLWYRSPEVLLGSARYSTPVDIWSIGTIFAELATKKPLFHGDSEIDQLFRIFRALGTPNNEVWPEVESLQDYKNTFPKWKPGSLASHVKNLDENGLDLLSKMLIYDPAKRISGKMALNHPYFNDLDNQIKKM
Chain of Casein kinase I isoform gamma-1 (Q9HCP0 whole entry, canonical isoform): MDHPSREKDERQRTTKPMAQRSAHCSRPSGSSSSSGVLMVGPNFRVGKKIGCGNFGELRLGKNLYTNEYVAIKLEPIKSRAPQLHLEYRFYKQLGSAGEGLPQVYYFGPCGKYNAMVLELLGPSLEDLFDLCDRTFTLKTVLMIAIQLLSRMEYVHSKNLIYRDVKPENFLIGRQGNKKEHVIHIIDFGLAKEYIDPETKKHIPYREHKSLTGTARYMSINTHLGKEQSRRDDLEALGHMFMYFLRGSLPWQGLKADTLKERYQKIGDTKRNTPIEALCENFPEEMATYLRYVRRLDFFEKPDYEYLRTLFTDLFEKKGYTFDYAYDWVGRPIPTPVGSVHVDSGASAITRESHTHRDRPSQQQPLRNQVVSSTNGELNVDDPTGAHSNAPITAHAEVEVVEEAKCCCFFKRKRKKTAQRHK

Take `Cc1ccc(C(=O)Nc2ccc(Oc3cc4cnn(C)c4cc3-c3cn[nH]c3)c(F)c2)c(=O)n1-c1ccc(F)cc1` [MERESTINIB]: the Kd in experiment [1], in experiment [2], in experiment [3], in experiment [4], in experiment [5] and in experiment [6] was > 30 µM (inactive) each time. For the same molecule, the Kd in experiment [7] and in experiment [8] was > 30 µM (inactive) in each case.

Consider `C=CC(=O)Nc1cccc(Nc2nc(Nc3ccc(N4CCN(C(C)=O)CC4)cc3OC)ncc2C(F)(F)F)c1` [ROCILETINIB], for which the Kd in experiment [1], in experiment [2], in experiment [3], in experiment [4], in experiment [5] and in experiment [6] was > 30 µM (inactive) throughout. The Kd in experiment [7] and in experiment [8] was > 30 µM (inactive) each time.

For `C=CC(=O)Nc1cc(Nc2nccc(-c3cn(C)c4ccccc34)n2)c(OC)cc1N(C)CCN(C)C` [OSIMERTINIB], the Kd in experiment [1], in experiment [2], in experiment [3], in experiment [4], in experiment [5] and in experiment [6] was > 30 µM (inactive) throughout. Besides, the Kd in experiment [7] and in experiment [8] was > 30 µM (inactive) throughout.

In the case of `COc1cc(Nc2ncc(F)c(Nc3ccc4c(n3)N(COP(=O)(O)O)C(=O)C(C)(C)O4)n2)cc(OC)c1OC` [FOSTAMATINIB], the Kd in experiment [1], in experiment [2], in experiment [3], in experiment [4], in experiment [5] and in experiment [6] was > 30 µM (inactive) each time. In addition, the Kd in experiment [7] and in experiment [8] was > 30 µM (inactive) throughout.

`O=S(=O)(c1cccc2c(O)nccc12)N1CCCNCC1` [HYDROXYFASUDIL]: the Kd in experiment [1], in experiment [2], in experiment [3], in experiment [4], in experiment [5] and in experiment [6] was > 30 µM (inactive) each time. Besides, the Kd in experiment [7] and in experiment [8] was > 30 µM (inactive) throughout.

For the molecule `CCc1nc(C(N)=O)c(Nc2ccc(N3CCC(N4CCN(C)CC4)CC3)c(OC)c2)nc1NC1CCOCC1` [GILTERITINIB], the Kd was > 30 µM (inactive) in experiment [1]; 0.202 µM (active) in experiment [2]; > 30 µM (inactive) in experiment [3]; 2.84 µM (active) in experiment [4]; > 30 µM (inactive) in experiment [5]; 0.536 µM (active) in experiment [6]. In addition, the Kd in experiment [7] and in experiment [8] was > 30 µM (inactive) each time.

In the case of `Cc1c(NC(=O)OC[C@@H]2COCCN2)cn2ncnc(Nc3ccc4c(cnn4Cc4cccc(F)c4)c3)c12` [AC-480], the Kd in experiment [1], in experiment [2], in experiment [3], in experiment [4], in experiment [5] and in experiment [6] was > 30 µM (inactive) each time. Moreover, the Kd in experiment [7] and in experiment [8] was > 30 µM (inactive) in each case.

Turning to `O[C@H]1CC[C@H](Nc2ncc3nc(Nc4c(F)cc(F)cc4F)n([C@H]4CCOC4)c3n2)CC1` [TANZISERTIB], the Kd in experiment [1], in experiment [2], in experiment [3], in experiment [4], in experiment [5] and in experiment [6] was > 30 µM (inactive) each time. In addition, the Kd in experiment [7] and in experiment [8] was > 30 µM (inactive) in each case.

Source of the values: ChEMBL document CHEMBL3991601, “The target landscape of clinical kinase drugs” (Science, 2017).
